The record followed here is patent US20240270748A1 (Merck Patent GmbH, priority 2021, published 2024).

One test has as its system YAP-TEAD interaction. The experiment in a line: SK-HEP-1 reporter assay (8xTEAD responsive elements driving NanoLuc luciferase). It counts as cell-based. The method, boiled down: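 Reporter read-out: NanoLuc luminescence from 8×TEAD elements stably integrated in SK-HEP-1 cells, after 24 h compound exposure at 37° C. Ten concentrations tested in duplicate, top 30 μM final, 0.3% DMSO; IC50 from curve.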

Another test deals with NCI-H226 cells. The experiment in a line: Viability assay in NCI-H226 (Yap-dependent) cells, CyQuant. In kind it is cell-based, human. The conditions noted are these: class symbols. The method, then: (§1) Viability Assay in NCI-H226 (Yap-Dependent) and SW620 Yap KO (Yap Independent) Cells
(§2) The ability of YAP-TEAD inhibitors to inhibit tumor cell growth was evaluated using two different cell lines: NCI-H226, which is a YAP dependent cell line, and SW620 cells, where YAP and TAZ were knocked out using CRISPR to generate a YAP independent cell line.
(§3) For the assay, cells were treated in duplicates with the test compounds in a 10-point dose, 1:3 dilution steps, with the top concentration starting at 30 μM (final concentration in assay). After a 96 hour incubation at 37° C., 95% rH, and 5% CO2, a cell-permeant DNA-binding dye that stains only healthy cells (CyQUANT®, Promega) was added to the cells, allowing the quantification of cell viability.
(§4) Cell Media: The NCI-H226 cells were cultured in the following media: RPMI 1640, +10% FBS, +1× GlutaMAX, +10 mM HEPES, +0.5% Pen/Strep. The SW620-KO cells were cultured in the following media: DMEM/F-12, +10% FBS, +1× GlutaMAX, +10 mM HEPES, +0.5% Pen/Strep.
(§5) Reagents: The reagents used are listed below:
(§6) Cell culture: The cells were examined using an inverted microscope to check for health, cell density, etc. To dissociate adherent cells, the monolayer of cells was washed once with pre-warmed PBS. After removing the PBS, 3 ml pre-warmed Accutase was added to a F75 flask, dispersed evenly and the flask was allowed to sit in incubator for ˜4-5 minutes.
(§7) When a single cell suspension was obtained, 7 ml of prewarmed growth media was added and resuspended with the cells. The cell suspension was transferred to a sterile 15 ml conical centrifuge tube, and spun for 5 min at 300×g, RT. The supernatant was discarded and the pellet was resuspended in 10 ml of pre-warmed growth media.
(§8) The total cell count was determined, and 20 μl of the desired cell number was added to each well of a 384 well plate using a Multidrop Combi. The plates were then incubated for 24 hours at 37° C., 95% rH, and 5% CO2.
(§9) Compound treatment: 24 hours after seeding, the cells were treated with compounds.
(§10) A 1:333 dilution of compounds, diluted in DMSO, was made to get a final concentration of 0.3% DMSO per well. To transfer the compounds to the assay plate, […] was shot from Labcyte low dead volume plates to the cell plates containing 20 μl media/well with the ECHO 555 liquid handling system.
(§11) After treatment, the cells were fed with 20 μl fresh pre-warmed assay media using a Multidrop combi.
(§12) The assay plates were then incubated for 96 h at 37° C., 95% rH, and 5% CO2.
(§13) 96 h after treatment 30 μl of CyQuant® reagent was added to the assay plates using a Multidrop combi in the dark. The plates were then incubated for 1 hour at 37° C., 95% rH and 5% CO2. Thereafter, the assay plates were removed from the incubator and allowed to equilibrate to RT for 30 min in the dark without lid. Finally, they were measured using an EnVision microplate reader with a FITC bottom read program.

A further test relates to SW620 Yap KO cells. The experiment in a line: Viability assay in SW620 Yap KO (Yap independent) cells, CyQuant. In kind it is cell-based. The conditions noted are these: Homo sapiens, SW-620, 96 h. The method, then:
as §1, §2, §3, §4, §5, §6, §7, §8, §9, §10, §11, §12, §13

Where [1] appears, read: Homo sapiens, SK-HEP1, SK-HEP-1 reporter assay, class symbols.
[2] abbreviates: n.d. = value not detectable below threshold given in parentheses.
Setting [3] is: n.d. = value not detectable below threshold given in parentheses, ND = not determinable within the entire range.

The structures appear in SMILES notation.

One may read the IC50 as the concentration needed to halve the response being measured. On to `C[C@@H](NC(=O)c1ccc2c(c1)c1nn(C)nc1n2-c1ccc(C(F)(F)F)cc1)c1ccccn1` [Example C176, 2-methyl-N-[(1R)-1-(pyridin-2-yl)ethyl]-4-[4-(trifluoromethyl)phenyl]-2H,4H-[1,2,3]triazolo[4,5-b]indole-7-carboxamide], for which the IC50 with YAP-TEAD interaction (setting [1]) was 10 to 100 nM; with NCI-H226 cells (Homo sapiens, NCI-H226, 96 h) it was 100 to 1000 nM; with SW620 Yap KO cells (setting [2]) it was > 30000 nM.

With `Cn1cc2c3cc(C(=O)NCc4ccncc4)ccc3n(-c3ccc(C(F)F)cc3)c2n1` [Example C209, 8-[4-(difluoromethyl)phenyl]-2-methyl-N-[(pyridin-4-yl)methyl]-2H,8H-pyrazolo[3,4-b]indole-5-carboxamide], the IC50 in the test with YAP-TEAD interaction (setting [1]) was 10 to 100 nM; in the test with NCI-H226 cells (Homo sapiens, NCI-H226, 96 h), 100 to 1000 nM; in the test on SW620 Yap KO cells (setting [2]), > 30000 nM.

With `Cn1nc2c3cc(C(=O)NC[C@H](O)C(F)(F)F)ccc3n(-c3ccc(C(F)(F)F)cc3)c2n1` [Example C159, 2-methyl-N-[(2S)-3,3,3-trifluoro-2-hydroxypropyl]-4-[4-(trifluoromethyl)phenyl]-2H,4H-[1,2,3]triazolo[4,5-b]indole-7-carboxamide], the IC50 in the test on YAP-TEAD interaction (setting [1]) was 10 to 100 nM; with NCI-H226 cells (Homo sapiens, NCI-H226, 96 h), 1 to 100 nM; in the test on SW620 Yap KO cells (setting [3]), > 3000 nM.

As for `CNC(=O)c1ccc2c(c1)c1cn(C)nc1n2-c1ccc(C(F)(F)F)c(F)c1` [Example C166, 8-[3-fluoro-4-(trifluoromethyl)phenyl]-N,2-dimethyl-2H,8H-pyrazolo[3,4-b]indole-5-carboxamide], the IC50 with YAP-TEAD interaction (setting [1]) was 10 to 100 nM; with NCI-H226 cells (Homo sapiens, NCI-H226, 96 h), 1 to 100 nM; in the test on SW620 Yap KO cells (setting [2]), > 3200 nM.

`Cn1nc2c3cc(C(=O)N[C@H](CO)c4ccccn4)ccc3n(-c3ccc(C(F)(F)F)cc3)c2n1` [Example C249, N-[(1S)-2-hydroxy-1-(pyridin-2-yl)ethyl]-2-methyl-4-[4-(trifluoromethyl)phenyl]-2H,4H-[1,2,3]triazolo[4,5-b]indole-7-carboxamide]: the IC50 with YAP-TEAD interaction (setting [1]) is 10 to 100 nM; with NCI-H226 cells (Homo sapiens, NCI-H226, 96 h), 100 to 1000 nM; in the test on SW620 Yap KO cells (setting [2]) it was > 30000 nM.

Consider `Cn1cnc2c1c1cc(C3CC(Cl)=NO3)ccc1n2-c1ccc(C(F)(F)F)cc1` (stereo not drawn) [Example C198, 3-chloro-5-{1-methyl-4-[4-(trifluoromethyl)phenyl]-1H,4H-imidazo[4,5-b]indol-7-yl}-4,5-dihydro-1,2-oxazole], for which the IC50 with YAP-TEAD interaction (setting [1]) is 10 to 100 nM; in the test with NCI-H226 cells (Homo sapiens, NCI-H226, 96 h) it was 1 to 100 nM; with SW620 Yap KO cells (setting [2]) it was > 3000 nM.

Consider `Cc1snc2c1c1cc(C(=O)NCC(C)(C)O)ccc1n2-c1ccc(C(F)(F)F)cc1` [Example C52, N-(2-hydroxy-2-methylpropyl)-3-methyl-8-[4-(trifluoromethyl)phenyl]-8H-[1,2]thiazolo[3,4-b]indole-5-carboxamide], for which the IC50 in the test with YAP-TEAD interaction (setting [1]) was 10 to 100 nM; with NCI-H226 cells (Homo sapiens, NCI-H226, 96 h), 1 to 100 nM; in the test on SW620 Yap KO cells (setting [3]) it was > 3200 nM.

Turning to `Cn1nc2c3cc(C(=O)N=[S@@](=O)(CCCO)Cc4ccccn4)ccc3n(-c3ccc(C(F)(F)F)cc3)c2n1` (single isomer, unassigned) [Example C237], the IC50 is > 3000 nM with YAP-TEAD interaction (Homo sapiens, SK-HEP1, SK-HEP-1 reporter assay, n.d. = value not detectable below threshold given in parentheses); 1 to 100 nM in the test with NCI-H226 cells (Homo sapiens, NCI-H226, 96 h); > 3000 nM with SW620 Yap KO cells (setting [2]).

For the molecule `COCC[C@@H](CO)NC(=O)c1ccc2c(c1)c1c(C)snc1n2-c1ccc(C(F)(F)F)cc1` (single isomer, unassigned) [Example C89], the IC50 in the test on YAP-TEAD interaction (setting [1]) was 10 to 100 nM; in the test on NCI-H226 cells (Homo sapiens, NCI-H226, 96 h), 1 to 100 nM; in the test on SW620 Yap KO cells (setting [3]), > 30000 nM.

On to `CON(C)C(=O)c1ccc2c(c1)c1cn(C)nc1n2-c1ccc(C(F)(F)F)cc1` [Example C156, N-methoxy-N,2-dimethyl-8-[4-(trifluoromethyl)phenyl]-2H,8H-pyrazolo[3,4-b]indole-5-carboxamide], for which the IC50 was 10 to 100 nM in the test with YAP-TEAD interaction (setting [1]); 1 to 100 nM in the test with NCI-H226 cells (Homo sapiens, NCI-H226, 96 h); > 30000 nM in the test with SW620 Yap KO cells (setting [3]).

Consider `Cc1ccc(-n2c3ccc(C(=O)N[C@H](C)CO)cc3c3cn(C)nc32)cc1` [Example C131, N-[(2R)-1-hydroxypropan-2-yl]-2-methyl-8-(4-methylphenyl)-2H,8H-pyrazolo[3,4-b]indole-5-carboxamide], for which the IC50 in the test with YAP-TEAD interaction (setting [1]) is 100 to 10000 nM; with NCI-H226 cells (Homo sapiens, NCI-H226, 96 h) it was 100 to 1000 nM; in the test with SW620 Yap KO cells (setting [3]) it was > 30000 nM.

Consider `Cn1cc2c3nc(C(=O)N=S(C)(=O)CCCO)ccc3n(-c3ccc(C(F)(F)F)cc3)c2n1` (stereo not drawn) [Example C117, N-[(3-hydroxypropyl)(methyl)oxo- \6-sulfanylidene]-4-methyl-7-[4-(trifluoromethyl)phenyl]-4,5,7,12-tetraazatricyclo[6.4.0.0^2,6∧{2,6}]dodeca-1(8),2,5,9,11-pentaene-11-carboxamide], for which the IC50 is > 1000 nM in the test with YAP-TEAD interaction (Homo sapiens, SK-HEP1, SK-HEP-1 reporter assay, n.d. = value not detectable below threshold given in parentheses, ND = not determinable within the entire range); 100 to 1000 nM in the test on NCI-H226 cells (Homo sapiens, NCI-H226, 96 h); > 30000 nM in the test on SW620 Yap KO cells (setting [3]).

Turning to `Cn1nc2c3cc(C(=O)N=[S@@](C)(=O)CCCO)ccc3n(-c3ccc(C(F)(F)F)cc3)c2n1` (single isomer, unassigned) [Example C173], the IC50 is 10 to 100 nM in the test with YAP-TEAD interaction (setting [1]); 1 to 100 nM in the test on NCI-H226 cells (Homo sapiens, NCI-H226, 96 h); > 30000 nM in the test on SW620 Yap KO cells (setting [2]).

`Cc1c2c3cc(C(=O)N[C@@H](CO)c4ccccn4)ccc3n(-c3ccc(C(F)(F)F)cc3)c2nn1C` [Example C99, N-[(1R)-2-hydroxy-1-(pyridin-2-yl)ethyl]-2,3-dimethyl-8-[4-(trifluoromethyl)phenyl]-2H,8H-pyrazolo[3,4-b]indole-5-carboxamide]: the IC50 in the test with YAP-TEAD interaction (setting [1]) was in the range of 10 to 100 nM; with NCI-H226 cells (Homo sapiens, NCI-H226, 96 h) it was 1 to 100 nM; in the test on SW620 Yap KO cells (class symbols) it was 10000 to 30000 nM.

For the molecule `Cc1snc2c1c1cc(C(N)=O)ccc1n2-c1ccc(C(F)(F)F)cc1` [Example C120, 3-methyl-8-[4-(trifluoromethyl)phenyl]-8H-[1,2]thiazolo[3,4-b]indole-5-carboxamide], the IC50 was 10 to 100 nM in the test with YAP-TEAD interaction (setting [1]); 1 to 100 nM with NCI-H226 cells (Homo sapiens, NCI-H226, 96 h); > 30000 nM with SW620 Yap KO cells (setting [3]).

Regarding `C[C@@H](NC(=O)c1ccc2c(c1)c1cn(C)nc1n2-c1ccc(C(F)(F)F)cc1)c1ccncc1` [Example C122, 2-methyl-N-[(1R)-1-(pyridin-4-yl)ethyl]-8-[4-(trifluoromethyl)phenyl]-2H,8H-pyrazolo[3,4-b]indole-5-carboxamide], the IC50 is 10 to 100 nM in the test on YAP-TEAD interaction (setting [1]); 100 to 1000 nM in the test with NCI-H226 cells (Homo sapiens, NCI-H226, 96 h); > 30000 nM in the test with SW620 Yap KO cells (setting [3]).

Turning to `Cn1cc2c3cc(C(=O)O)cnc3n(-c3ccc(C(F)(F)F)cc3)c2n1` [Example C110, 4-methyl-7-[4-(trifluoromethyl)phenyl]-4,5,7,9-tetraazatri-cyclo[6.4.0.0^2,6]dodeca-1(8),2,5,9,11-pentaene-11-carboxylic acid], the IC50 in the test on YAP-TEAD interaction (SK-HEP-1 reporter assay, class symbols) is 10 to 100 nM; with NCI-H226 cells (96 h), 100 to 1000 nM; in the test with SW620 Yap KO cells (setting [3]), > 30000 nM.

As to `Cc1snc2c1c1cc(C(=O)NC[C@H](C)O)ccc1n2-c1ccc(C(F)(F)F)cc1` [Example C94, N-[(2S)-2-hydroxypropyl]-3-methyl-8-[4-(trifluoromethyl)phenyl]-8H-[1,2]thiazolo[3,4-b]indole-5-carboxamide], the IC50 was 10 to 100 nM in the test on YAP-TEAD interaction (setting [1]); 1 to 100 nM with NCI-H226 cells (Homo sapiens, NCI-H226, 96 h); > 30000 nM with SW620 Yap KO cells (setting [3]).

For the molecule `Cc1cc(C(CO)NC(=O)c2ccc3c(c2)c2nn(C)nc2n3-c2ccc(C(F)(F)F)cc2)ccn1` (stereo not drawn) [Example C220, N-[2-hydroxy-1-(2-methylpyridin-4-yl)ethyl]-2-methyl-4-[4-(trifluoromethyl)phenyl]-2H,4H-[1,2,3]triazolo[4,5-b]indole-7-carboxamide], the IC50 with YAP-TEAD interaction (setting [1]) is 10 to 100 nM; in the test with NCI-H226 cells (Homo sapiens, NCI-H226, 96 h), 1 to 100 nM; with SW620 Yap KO cells (setting [2]) it was > 3000 nM.
